Measured values from US8927571B2, “Pyrido[4,3-B]indoles and methods of use” (Medivation Technologies, Inc., priority 2009, dated 2015).

Experiments:
[1] = molecular target: human recombinant serotonin (5-Hydroxytryptamine) 5-HT7 receptor (Homo sapiens, UniProt P34969); assay: Serotonin 5-HT7 radioligand binding assay ([3H]LSD); conditions: 5.5 nM [3H]LSD, read-out: Percent Inhibition of ligand binding, Serotonin (1 μM) 5-HT7
Protocol: Compounds of invention were incubated with 5.5 nM [^3H] Lysergic acid diethylamide (LSD) for 2 h at 25° C. […] Receptor proteins were filtered and washed, the filters were then counted to determine [^3H]LSD specifically bound. Compounds were screened at 1 μM or lower, using 1% DMSO as vehicle. Biochemical assay results are presented as the percent inhibition of specific binding in Table 4.

[2] = molecular target: T1, human recombinant serotonin (5-Hydroxytryptamine) 5-HT6 receptor (Homo sapiens, UniProt P50406); assay: Serotonin 5-HT6 radioligand binding assay ([3H]LSD); conditions: 1.5 nM [3H]LSD, read-out: Percent Inhibition of ligand binding, Serotonin (1 μM) 5-HT6
T1 construct: expressed in transfected cells; host or cells: human HeLa cells
T1 sequence (P50406 whole entry): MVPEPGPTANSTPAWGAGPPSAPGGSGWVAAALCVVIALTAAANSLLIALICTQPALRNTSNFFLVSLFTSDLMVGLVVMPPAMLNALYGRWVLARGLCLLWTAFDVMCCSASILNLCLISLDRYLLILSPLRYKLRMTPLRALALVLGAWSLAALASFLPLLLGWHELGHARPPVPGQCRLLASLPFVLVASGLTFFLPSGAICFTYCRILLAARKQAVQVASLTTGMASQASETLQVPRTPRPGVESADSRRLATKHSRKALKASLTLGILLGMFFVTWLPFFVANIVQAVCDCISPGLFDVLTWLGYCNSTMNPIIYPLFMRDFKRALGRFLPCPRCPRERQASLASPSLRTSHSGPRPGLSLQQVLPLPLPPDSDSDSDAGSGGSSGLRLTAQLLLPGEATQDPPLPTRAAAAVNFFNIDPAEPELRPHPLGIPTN
Protocol: Compounds of the invention were incubated with 1.5 nM [3H]Lysergic acid diethylamide (LSD) for 120 min at 37° C. […] Receptor proteins were filtered and washed, the filters were then counted to determine [3H]LSD specifically bound. Compounds were screened at 1 μM or lower, using 1% DMSO as vehicle. Biochemical assay results are presented as the percent inhibition of specific binding in Table 4.

[3] = molecular target: T2, human recombinant adrenergic α1D receptor (Homo sapiens, UniProt P25100); assay: Adrenergic α1D radioligand binding assay ([3H]Prozosin); conditions: 0.6 nM [3H]Prozosin, read-out: Percent Inhibition of ligand binding, Adrenergic (1 μM) α1D
T2 construct: expressed in transfected cells; host or cells: human embryonic kidney (HEK-293) cells
T2 sequence (P25100 1-572): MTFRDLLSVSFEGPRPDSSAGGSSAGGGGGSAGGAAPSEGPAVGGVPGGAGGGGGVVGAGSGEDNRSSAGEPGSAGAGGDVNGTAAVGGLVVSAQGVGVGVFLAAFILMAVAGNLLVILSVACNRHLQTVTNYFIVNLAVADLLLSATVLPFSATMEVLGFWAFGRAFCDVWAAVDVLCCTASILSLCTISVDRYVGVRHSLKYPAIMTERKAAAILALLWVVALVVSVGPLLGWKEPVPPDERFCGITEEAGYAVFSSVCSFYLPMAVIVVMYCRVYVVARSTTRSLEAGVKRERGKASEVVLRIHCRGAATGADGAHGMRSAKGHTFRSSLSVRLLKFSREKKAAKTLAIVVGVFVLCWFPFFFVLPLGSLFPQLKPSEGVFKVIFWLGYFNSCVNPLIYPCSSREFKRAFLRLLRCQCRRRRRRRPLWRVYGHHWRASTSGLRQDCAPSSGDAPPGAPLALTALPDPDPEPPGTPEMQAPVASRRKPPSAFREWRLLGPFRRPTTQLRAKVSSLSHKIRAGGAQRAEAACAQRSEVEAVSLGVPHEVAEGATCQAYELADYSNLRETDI
Protocol: Compounds of invention were incubated with 0.6 nM [^3H]Prozosin for 60 min at 25° C. Non-specific binding was estimated in the presence of 10 μM phentolamine. Receptor proteins were filtered and washed, the filters were then counted to determine [^3H]Prozosin specifically bound. Compounds were screened at 1 μM or lower, using 1% DMSO as vehicle. Biochemical assay results are presented as the percent inhibition of specific binding in Table 3.

[4] = molecular target: T3, human recombinant histamine H2 receptor (Homo sapiens, UniProt P25021); assay: Histamine H2 radioligand binding assay ([125I]Aminopotentidine); conditions: percent inhibition of specific binding of 0.1 nM [125I]Aminopotentidine; compounds screened at 1 μM or lower
T3 construct: expressed in transfected cells; host or cells: Chinese hamster ovary (CHO) K1 cells
T3 sequence (P25021 whole entry): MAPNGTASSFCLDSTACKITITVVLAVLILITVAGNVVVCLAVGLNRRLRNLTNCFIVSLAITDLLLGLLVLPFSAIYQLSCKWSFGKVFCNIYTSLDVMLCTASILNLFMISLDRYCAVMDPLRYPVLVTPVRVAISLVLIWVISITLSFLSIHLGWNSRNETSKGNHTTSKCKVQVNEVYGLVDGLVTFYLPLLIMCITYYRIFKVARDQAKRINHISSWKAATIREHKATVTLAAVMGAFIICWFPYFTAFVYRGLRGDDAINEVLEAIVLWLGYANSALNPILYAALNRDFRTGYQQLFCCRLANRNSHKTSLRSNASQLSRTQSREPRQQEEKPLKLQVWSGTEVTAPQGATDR
Protocol: To evaluate in radioligand binding assays the activity of compounds of the invention, human recombinant histamine H2 receptor expressed in Chinese hamster ovary (CHO) K1 cells (Ruat, M., Proc. Natl. Acad. Sci. USA. 87(5):1658, 1990) in a 50 mM Phosphate buffer, pH 7.4 was used. Compounds of the invention were incubated with 0.1 nM [^125I]Aminopotentidine for 120 min at 25° C. Non-specific binding was estimated in the presence of 3 μM Tiotidine. Receptor proteins were filtered and washed, the filters were then counted to determine [^125I]Aminopotentidine specifically bound. Compounds were screened at 1 μM or lower, using 1% DMSO as vehicle. Biochemical assay results are presented as the percent inhibition of specific binding in Table 2.

[5] = molecular target: human recombinant histamine H1 receptor (Homo sapiens, UniProt P35367); assay: Histamine H1 radioligand binding assay ([3H]Pyrilamine); conditions: percent inhibition of specific binding of […] [3H]Pyrilamine; compounds screened at 1 μM or lower
Sequence of human recombinant histamine H1 receptor (P35367 whole entry): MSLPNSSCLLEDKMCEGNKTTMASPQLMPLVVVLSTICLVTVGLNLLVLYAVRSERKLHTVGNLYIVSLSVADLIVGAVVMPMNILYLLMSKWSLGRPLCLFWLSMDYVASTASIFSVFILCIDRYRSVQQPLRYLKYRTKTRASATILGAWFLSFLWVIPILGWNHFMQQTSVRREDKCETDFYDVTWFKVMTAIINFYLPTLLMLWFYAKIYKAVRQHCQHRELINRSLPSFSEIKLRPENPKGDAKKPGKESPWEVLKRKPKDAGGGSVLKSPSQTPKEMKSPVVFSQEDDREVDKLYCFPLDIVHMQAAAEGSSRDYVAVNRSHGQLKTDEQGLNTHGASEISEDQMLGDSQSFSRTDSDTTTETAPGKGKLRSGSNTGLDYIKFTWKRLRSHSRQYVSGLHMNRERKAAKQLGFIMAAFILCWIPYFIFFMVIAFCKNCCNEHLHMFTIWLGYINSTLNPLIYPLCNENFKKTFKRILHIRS
Protocol: To evaluate in radioligand binding assays the activity of compounds of the invention, human recombinant histamine H1 receptor expressed in Chinese hamster ovary (CHO) cells (De Backer, M. D. et al., Biochem. Biophys. Res. Comm. 197(3):1601, 1993) in a modified Tris-HCl buffer (50 mM Tris-HCl, pH 7.4, 2 mM MgCl2, 100 mM NaCl, 250 mM Sucrose) was used. Compounds of the invention were incubated with 1.2 nM [^3H]Pyrilamine for 180 min at 25° C. Non-specific binding was estimated in the presence of 1 μM pyrilamine. Receptor proteins were filtered and washed, the filters were then counted to determine [^3H]Pyrilamine specifically bound. Compounds were screened at 1 μM or lower, using 1% DMSO as vehicle. Biochemical assay results are presented as the percent inhibition of specific binding in Table 2.

Sequence of human recombinant serotonin (5-Hydroxytryptamine) 5-HT7 receptor (P34969 whole entry): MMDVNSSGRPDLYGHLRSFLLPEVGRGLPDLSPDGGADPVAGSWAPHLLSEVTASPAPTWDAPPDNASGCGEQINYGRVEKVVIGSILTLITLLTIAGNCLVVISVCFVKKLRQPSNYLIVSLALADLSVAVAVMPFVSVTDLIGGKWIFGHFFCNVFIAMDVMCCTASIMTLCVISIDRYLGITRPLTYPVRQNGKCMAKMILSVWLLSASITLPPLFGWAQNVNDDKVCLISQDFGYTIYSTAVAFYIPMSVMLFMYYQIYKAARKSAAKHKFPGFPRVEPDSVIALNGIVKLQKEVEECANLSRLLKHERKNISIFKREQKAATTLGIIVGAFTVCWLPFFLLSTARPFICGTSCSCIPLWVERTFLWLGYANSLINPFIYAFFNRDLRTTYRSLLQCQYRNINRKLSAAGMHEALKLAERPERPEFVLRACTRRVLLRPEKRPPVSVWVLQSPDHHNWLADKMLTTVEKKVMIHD

Structure (SMILES)	inhibition at 1 µM [1]	inhibition at 1 µM [2]	inhibition at 1 µM [3]	Binding Data (% Inhibition) Histamine Binding H2 [4]	Binding Data (% Inhibition) Histamine Binding H1 [5]
CN1CCc2c(c3cc(Cl)ccc3n2CC2(c3ccc(F)cc3)OCCO2)C1 [Compound 4, 8-chloro-5-((2-(4-fluorophenyl)-1,3-dioxolan-2-yl)methyl)-2-methyl-2,3,4,5-tetrahydro-1H-pyrido[4,3-b]indole]	93%	104%	35%	96%	87%
CN1CCc2c(c3cc(Cl)ccc3n2CC2(c3ccc(Cl)cc3)OCCO2)C1 [Compound 5, 8-chloro-5-((2-(4-chlorophenyl)-1,3-dioxolan-2-yl)methyl)-2-methyl-2,3,4,5-tetrahydro-1H-pyrido[4,3-b]indole]	89%	85%	16%	98%	90%
Cc1ccc2c(c1)c1c(n2CC2(c3ccc(F)cc3)OCCO2)CCN(C)C1 [Compound 3, 5-((2-(4-fluorophenyl)-1,3-dioxolan-2-yl)methyl)-2,8-dimethyl-2,3,4,5-tetrahydro-1H-pyrido[4,3-b]indole]	99%	103%	60%	96%	86%
CCOC(=O)CC(Cn1c2c(c3cc(C)ccc31)CN(C)CC2)c1ccc(F)cc1 (stereo not drawn) [Compound 6, ethyl 4-(2,8-dimethyl-3,4-dihydro-1H-pyrido[4,3-b]indol-5(2H)-yl)-3-(4-fluorophenyl)butanoate]	93%	102%	106%	86%	–
CNC(=O)CC(Cn1c2c(c3cc(C)ccc31)CN(C)CC2)c1ccc(F)cc1 (stereo not drawn) [Compound 8, 4-(2,8-dimethyl-3,4-dihydro-1H-pyrido[4,3-b]indol-5(2H)-yl)-3-(4-fluorophenyl)-N-methylbutanamide]	74%	63%	87%	22%	6%
Cc1ccc2c(c1)c1c(n2CC2(c3ccccc3)OCCO2)CCN(C)C1 [Compound 2, 2,8-dimethyl-5-((2-phenyl-1,3-dioxolan-2-yl)methyl)-2,3,4,5-tetrahydro-1H-pyrido[4,3-b]indole]	–	102%	56%	89%	71%
Cc1ccc2c(c1)c1c(n2CC(CC(=O)O)c2ccc(F)cc2)CCN(C)C1 (stereo not drawn) [Compound 7, 4-(2,8-dimethyl-3,4-dihydro-1H-pyrido[4,3-b]indol-5(2H)-yl)-3-(4-fluorophenyl)butanoic acid]	5%	-3%	21%	5%	−1%
